Data: patent US9918999B2, “Method for preparing a medical solution for the manufacture of a medicament for peritoneal dialysis” (FRESENIUS MEDICAL CARE DEUTSCHLAND GMBH, priority 2002, dated 2018)

Experiments:
peritoneum = settings: rats, chronic peritoneal dialysis; cited from earlier work
[1] = tested on: human peritoneal mesothelial cells and fibroblasts; settings: cited from earlier work
[2] = fluorescence of heat sterilised NAG containing solutions; assay type: physicochemical; settings: terminally heat sterilised solution, excitation 350 nm, emission 430 nm, FIG. 3
Text: (§1) A simple, reliable and known way to study the cytotoxicity of substances or of medical fluids is to test proliferation as in vitro inhibition of cell growth (ICG) in cultured cells. Another method to get a rough estimation of the amount of amino sugars that is rearranged is measurement of the fluorescence.

cultured cells = test: in vitro inhibition of cell growth (ICG) in cultured cells; assay type: cell-based
Text: Experiments in which measurements of the percentage of inhibition of cell growth (ICG) and fluorescence have been made at varying pH values and NAG concentrations during terminal heat sterilisation are illustrated in FIGS. 1-3. The results of the experiments imply that the pH of the amino sugar containing solution should be decreased from the neutral level and that, in a preferred embodiment of the invention, also the concentration of the amino sugar/sugars should be optimised.
as §1

[3] = degradation during heat sterilisation (pH change, HPLC of 3-DG and 3,4-DGE); assay type: physicochemical
Text: NAG and other amino sugars have a major difference from glucose and glucose-like compounds by having one amino group and possibly an acetyl group coupled to the glucose ring. […] It should be noted that the decomposition pattern for an amino sugar solution during heat sterilisation follows specific Maillard reactions giving several different toxic decomposition products. The decomposition pattern differs for e.g. a glucose solution during heat sterilisation, wherein different decomposition products are formed. This difference is illustrated in FIGS. 4a-4d, showing chromatograms when analysing 3-DG and 3,4-DGE in a NAG solution and in a glucose solution, respectively. The difference in degradation is likely due to that the NAG molecules contains groups that allows the Maillard reaction to take place and therefore create a large number of degradation products not seen in a glucose solution.

pH at which the lowest fluorescence is seen [2] | change of pH of the solution during sterilisation [3] | Molecule | effect on the peritoneum of a supplemented dialysis solution (peritoneum) | production of hyaluronan and sulphated glycosaminoglycans [1] | percentage inhibition of cell growth, effect of NAG concentration (cultured cells; NAG 30% vs 1.5% during terminal heat sterilisation, all three pH values, FIG. 2) | cytotoxicity after heat sterilisation (cultured cells; conventional medical solutions) | pH of sterilisation at which inhibition of cell growth reaches a minimum (cultured cells; solution containing 1.5% NAG, FIG. 1) | percentage inhibition of cell growth, effect of pH (cultured cells; terminal heat sterilisation at pH 3.0, 5.5 and 7.2, FIG. 2) | known glucose degradation products in heat sterilised solution ([3]; heat sterilised NAG solutions)
– | – | hyaluronan [reference compound] | function of the peritoneum as a dialysis membrane is better preserved | – | – | – | – | – | –
~4 | increases during sterilisation | CC(=O)N[C@H]1C(O)O[C@H](CO)[C@@H](O)[C@@H]1O (stereo partly shown) [NAG, N-acetylglucosamine] | causes accumulation of glucosaminoglycans in the peritoneal interstitium, resulting in a favorable change of the peritoneal permeability | rapidly stimulates the production of hyaluronan and sulphated glycosaminoglycans | lower after a terminal heat sterilisation at a NAG concentration of 30% than at a NAG concentration of 1.5% | increased cytotoxicity after heat sterilisation | 2.5-3.5 | lower after terminal heat sterilisation at a pH of 3.0 than at a pH of 5.5 and 7.2 | none of the known glucose degradation products has been found
